Measurements published in patent US7223856B2, “Antisense compounds which prevent cell death and uses thereof” (The Trustees of Columbia University in the City of New York, priority 1997, dated 2007).

Experiments:
[1] = tested on: Jurkat cells; test: Anti-Fas mediated death of Jurkat cells; assay type: cell-based, human; conditions: dose-dependent, FIG. 8
From the text: FIG. 8. […] V-ICH is an antisense oligonucleotide having an antisense sequence of human Ich, specifically V-AICH has the sequence of Seq ID No. 2.
• 1. […] Beta-amyloid peptide mediates apoptosis in PC12 cells. This apoptosis can be abrogated by down-regulation of Nedd2. Clinical Relevance of Antisense Oligonucleotides.

[2] = tested on: Nedd2; test: Western blot of Nedd2 in PC12 cell lysates; assay type: cell-based, rat
From the text: The cells were extracted in sample buffer, the extracts boiled and equal amounts of protein resolved by 10% SDS-PAGE and transferred to nitrocellulose. Blots were probed with (FIG. 3A) anti-N-Nedd at 1:500 or (FIG. 3B) anti-C-Nedd at […] and staining visualized with ECL. Bands were quantified using Scion Image® software and normalized against peripherin levels. The level of down-regulation is representative of that obtained in 5 independent experiments.
PC12 cells grown with or without V-ANedd or V-SNedd were harvested in SDS-containing sample buffer and immediately boiled. Equal amounts of protein were separated by 10% PAGE, transferred to nitrocellulose and immunostained as described (Troy et al., 1992). The affinity purified anti-N-Nedd2 was used at a dilution of 1:500. The commercial antiserum, Nedd2 p12 C20 (Santa Cruz Biotechnology), was used at a dilution of 1:350. Visualization was with ECL using goat-anti-rabbit peroxidase at 1:1000. The relative intensity of the protein bands were quantified using Scion Image 1.55® software and samples were normalized by stripping and reprobing the blots with anti-peripherin antibody.

[3] = tested on: Nedd2; test: Nedd2 immunofluorescence staining of PC12 cells with anti-N-Nedd2; assay type: cell-based, rat; conditions: 400 nM, 24 hours, naive and neuronal PC12 cells
Method: Naive and neuronally differentiated PC12 cells (pretreated for at least 7 days with NGF, nerve growth factor) were plated on Matrigel coated multichamber slides. V-ANedd (400 nM) was added to the indicated cultures after plating. Naive cultures were grown in RPMI 1640 medium with 5% FCS and 10% horse serum; neuronal cultures were grown in RPMI 1640 medium with 1% horse serum and NGF (100 ng/ml). After overnight maintenance, cells were fixed in ice cold methanol and then immunostained with anti-N-Nedd.
PC12 cells were plated on coverslips or on 8 well multichamber slides (LabTek, VWR), coated with Matrigel®. After growth overnight, cells were fixed in ice cold methanol and then immunostained as described (Troy et al., 1990). The primary antibody was either affinity purified antibody Anti-N-Nedd2 or Nedd2 p12 C20 (Santa Cruz Biotechnology) at a dilution of 1:200. The secondary antibody was fluoroscein isothiocyanate-conjugated goat anti-rabbit (Cappel, Durham, N.C.) at 1:100. For visualization with a Nikon® fluorescence microscope slides were coverslipped with Aqua-mount®. Confocal microscopy was done on a BioRad® 600 confocal microscope.

[4] = tested on: naive PC12 cells; test: Survival of naive PC12 cells after serum deprivation (intact nuclei count); assay type: cell-based, rat; conditions: for protection from death caused by serum deprivation: additive at time of plating in serum-free medium, 24 hours
Method: (FIG. 4B) Dose-response curve for protection from serum deprivation by V-ANedd. PC12 cells were washed for trophic factor deprivation and plated in serum-free medium with the indicated concentrations of V-ANedd. Cell survival relative to the number present with the addition of NGF was measured at one day.
PC12 cells were grown as previously described (Greene and Tischler, 1976) on rat-tail collagen-coated dishes in RPMI 1640 medium containing 5% fetal calf serum and 10% heat-inactivated horse serum (complete medium). […] For cell survival assays involving trophic factor deprivation, cells (either naive or NGF-pretreated) were extensively washed in serum-free RPMI 1640 medium and re-plated on fresh collagen-coated 24-well dishes as previously described (Rukenstein et al., 1991) in RPMI 1640 medium lacking serum or NGF. […] Various concentrations of V-ANedd (vector linked antisense oligonucleotide to Nedd2) were included in the medium as indicated. Numbers of viable cells per culture were determined by quantifying intact nuclei as previously described (Rukenstein et al., 1991). Counts were performed in triplicate and reported as means ±SEM.

[5] = tested on: naive PC12 cells; conditions: PC12 cells and sympathetic neurons, Troy et al., 1996b; cited from earlier work
[6] = tested on: PC12 cells; conditions: PC12 cells and sympathetic neurons, Troy et al., 1996b; cited from earlier work
[7] = tested on: CPP-32; test: Western blot of the same samples probed with anti-CPP32; assay type: cell-based, rat; conditions: blots of the same samples probed with anti-CPP32
[8] = tested on: neuronally differentiated PC12 cells; test: Survival of neuronally differentiated PC12 cells after NGF withdrawal; assay type: cell-based, rat
Method: (§1) (FIG. 5A) V-ANedd differentially protects neuronally differentiated PC12 cells from apoptosis caused by NGF withdrawal. PC12 cells were neuronally differentiated by exposure to NGF (100 ng/ml) for at least 7 days in RPMI 1640 medium plus 1% horse serum. Cells were deprived of serum and NGF and re-plated as described in FIGS. 4A–C. Additives present at the time of plating included 400 nM V-ANedd, 400 nM V-ICEinh or 100 ng/ml NGF (4 left-hand bars). For SOD1 down-regulation (4 right-hand bars) neuronally differentiated PC12 cells were plated in RPMI 1640 medium plus 1% horse serum, with 100 ng/ml NGF. At the time of plating, cultures were incubated, as indicated, with 50 nM V-ASOD1 and with the indicated additives (800 nM V-ANedd, 50 nM V-ICEinh). Cell survival was determined after one day and expressed as in FIGS. 4A–C.
(FIG. 5B) Dose-response curve for protection from NGF deprivation by V-ANedd. Neuronally differentiated PC12 cells were washed as above for NGF deprivation and plated in serum-free medium with the indicated concentrations of V-ANedd. Cell survival relative to the number present with the addition of NGF was quantified at one day.
(FIG. 5C) V-ANedd provides long term protection against NGF deprivation. Neuronally differentiated PC12 cells were deprived of NGF and serum and plated as described in FIG. 5A. V-ANedd (400 nM) was included at the time of NGF deprivation and replenished 1 day later. Cell survival was determined at the indicated times as in FIGS. 4A–C.
(§2) PC12 cells were grown as previously described (Greene and Tischler, 1976) on rat-tail collagen-coated dishes in RPMI 1640 medium containing 5% fetal calf serum and 10% heat-inactivated horse serum (complete medium). NGF primed (neuronally differentiated) PC12 cells were grown for at least 7 days in RPMI 1640 medium plus 1% horse serum and NGF (100 ng/ml). […] Numbers of viable cells per culture were determined by quantifying intact nuclei as previously described (Rukenstein et al., 1991). […]

[9] = tested on: neuronally differentiated PC12 cells; test: Survival of neuronally differentiated PC12 cells after SOD1 down-regulation; assay type: cell-based, rat; conditions: 50 nM V-ASOD1
Method: as §1, §2

[10] = tested on: PC12 cells; test: Survival of PC12 cells after SOD1 down-regulation by V-ASOD1; assay type: cell-based, rat
Method: (FIG. 4A) V-ANedd differentially protects PC12 cells from serum deprivation. For serum deprivation (4 left-hand bars) cells were extensively washed as described in Experimental Procedures hereinbelow and the indicated additives (100 ng/ml NGF, 400 nM V-ANedd, or 200 nM V-ICEinh were added at the time of plating in serum-free RPMI1640 medium. For SOD1 down-regulation (4 right-hand bars), PC12 cells were re-plated on fresh collagen-coated 24-well dishes in complete medium (RPMI 1640 medium with 10% horse serum, 5% fetal bovine serum) with 50 nM V-ASOD1 (vector linked antisense oligonucleotide to SOD1). Additives (800 nM V-ANedd, 25 nM V-ICEinh) were included as indicated. Control cells were in complete medium. Cultures were incubated for 24 hours, lysed and number of intact nuclei counted. The numbers of surviving cells are expressed relative to the number in the control cultures (designated as 100). […] Experiments were performed in triplicate wells and data are expressed as means ±SEM.
as §2, with “medium).” for “medium). NGF primed (neuronally differentiated) PC12 cells were grown for at least 7 days in RPMI 1640 medium plus 1% horse serum and NGF (100 ng/ml).”

[11] = tested on: sympathetic neurons; test: Survival of sympathetic neurons after NGF deprivation; assay type: cell-based, rat; conditions: for survival: single addition at time of NGF withdrawal
Method: (FIG. 6A) V-ANedd protects sympathetic neurons from NGF-withdrawal. At the time of NGF deprivation, V-ANedd (400 nM) was added to the cultures as indicated. Numbers of surviving neurons were determined at the indicated times as described in Experimental Procedures hereinbelow and are reported as relative to the number present in each culture at the time of NGF withdrawal.
(§3) Sympathetic neuron cultures were prepared from 2 day old rat pups, as previously described (Ferrari et al., 1995). Cultures were grown in 24-well collagen coated dishes in RPMI 1640 medium plus 10% horse serum with mouse NGF (100 ng/ml). One day following plating, uridine and 5-fluorodeoxyuridine (10 μM each) were added to the cultures and left for three days to eliminate non-neuronal cells. On the sixth day following plating NGF was removed by washing the cultures three times with RPMI 1640 medium plus 10% horse serum, followed by the addition of medium containing anti-mouse NGF (1:200, Sigma, St. Louis, Mo.) with or without V-ANedd. Each culture was scored, as previously described (Rydel and Greene, 1988), as numbers of living, phase-bright neurons at various times. Three replicate cultures were assessed for each condition and data are normalized to numbers of neurons present in each culture at the time of NGF withdrawal and reported as mean ±SEM.

[12] = tested on: IL-1β; test: IL-1β release from PC12 cells by ELISA; assay type: cell-based, rat; conditions: 50 nM V-ASOD1, 800 nM V-ANedd, 20 hours
Method: PC12 cells were plated with the indicated additives (50 nM V-ASOD1, 25 nM V-ICEinh, 800 nM V-ANedd). Controls contained complete medium. After 20 hours, media were removed and IL-1β was measured by ELISA using the Intertest-1βX® kit. Data are expressed as means ±SEM (n=3).
IL-1β was quantified by ELISA using the Intertest-1βX® kit (Genzyme, Cambridge, Mass.) as previously described (Troy et al., 1996b). PC12 cells were grown as described above, on 24-well plates, in 500 μl of medium. After one day incubation, medium was removed and IL-1β measured following the manufacturer's instructions, and number of viable cells in each well quantified.

[13] = tested on: sympathetic neurons; test: Sympathetic neuron death by SOD1 down-regulation and nitric oxide generation (V-ASOD1 + SNAP); assay type: cell-based, rat; conditions: V-ASOD1 50 nM, SNAP 100 μM, with NGF
Method: Sympathetic neurons, after 6 days in culture, were maintained with NGF (100 ng/ml) and mixtures of the following additives as indicated: V-ASOD1 (50 nM), SNAP (100 μM) and V-ANedd (400 nM). Numbers of surviving neurons were determined at the indicated times as above.
as §3

V-AICH: antisense oligonucleotide having an antisense sequence of human Ich, Seq ID No. 2 (GTCAGCGGCCATCAGCTT) (linked to vector peptide (Penetratin1), oligo chemistry not given here)
protection from anti-Fas mediated death [1]: protect from anti-Fas mediated death in a dose-dependent manner

V-SNedd: control scrambled oligonucleotide CCGTAGCGTAGCTCCGCCTGC (SEQ ID NO:5) linked to vector peptide Penetratin 1 (linked to vector peptide Penetratin 1, further chemistry not given here) [reference compound]
down-regulation of Nedd2 bands (in words) ([2]; control oligonucleotide, Western blot): did not down-regulate any of the bands | anti-N-Nedd2 staining (immunohistochemistry) [3]: no change in staining | protection from death caused by serum deprivation [4]: no effect on survival or death

IL-1Ra: IL-1 receptor antagonist
death caused by trophic factor/NGF withdrawal (literature) [5]: little or no effect | apoptosis following SOD1 down-regulation (literature) [6]: suppressed

V-ANedd: Penetratin1-linked antisense oligonucleotide to Nedd2, GCTCGGCGCCGCCATTTCCAG (SEQ ID NO:1) (Penetratin1 peptide conjugated, oligonucleotide chemistry not given here)
down-regulation of major band and minor Nedd2 bands ([2]; 18–22 hours treatment, n=4): 60–70% | down-regulation of Nedd2 in the presence of V-ASOD1 ([2]; in the presence of V-ASOD1): did down-regulate Nedd2 | down-regulation of CPP-32 [7]: no down-regulation of CPP-32 | NGF-like flattening of naive PC12 cells or neurite outgrowth from neuronally-differentiated cells ([8]; morphology, 400 nM, 24 hr): did not mimic the actions of NGF | protection from apoptosis caused by NGF withdrawal ([8]; neuronally differentiated PC12 cells, one day): protected neuronally differentiated PC12 cells from apoptosis caused by NGF withdrawal | survival of cells ([8]; two successive additions (at NGF deprivation and one day later), through 4 days): greater than 75% | anti-N-Nedd2 staining (immunohistochemistry) [3]: decreased to almost undetectable levels | protection from down-regulation of SOD1 [9]: not from down-regulation of SOD1 | protection from SOD1 down-regulation ([10]; naive PC12 cells, 50 nM V-ASOD1, V-ANedd up to 800 nM): no protection from SOD1 down-regulation | protection from SOD1 down-regulation after pretreatment ([10]; pretreatment with V-ANedd): without effect | maintenance of neurites of NGF-deprived neurons ([11]; 400 nM, NGF-free medium with anti-NGF): did not maintain the neurites | survival ([11]; after 4 days): over 60% | survival ([11]; at 8 days): 25% | IL-1β release after exposure to ASOD1 [12]: did not affect IL-1β release | effect on sympathetic neuron death evoked by V-ASOD1+SNAP [13]: without effect | concentration of maximal protection ([4]; added at the same time as serum withdrawal): 400 nM | protection from death caused by serum deprivation [4]: protects naive PC12 cells from death caused by serum deprivation | concentration of maximal survival after pretreatment ([4]; pretreatment for 4 hours with 50 nM V-ANedd): 100 nM

NGF: nerve growth factor
protection from death caused by serum deprivation [4]: promotes survival of all cells initially plated
